Reference: PubChem BioAssay AID1745844 (Carcinogenic Potency Database (CPDB), 2022)
Active and inactive are the calls of the source. The rule behind the calls is not given here.

Test system: rodent lifetime carcinogenesis bioassay, tumor incidence TD50
Assay: chronic cancer bioassays in animals – CPDB, compiled studies (AID 1745844)

Structure (SMILES): Cc1ccc(S(=O)(=O)Oc2ccc(N=Nc3ccc(-c4ccc(N=Nc5c(O)ccc6cc(S(=O)(=O)O)cc(S(=O)(=O)O)c56)c(C)c4)cc3C)cc2)cc1
- TD50 (rat, strain Fischer 344, females, in drinking water, site: Zymbal's gland, lesion: adenoma + carcinoma, dosed 98 weeks, study length 104 weeks): 15.6 mg/kg/day
- TD50 (rat, strain Fischer 344, females, in drinking water, site: Zymbal's gland, lesion: adenoma, dosed 98 weeks, study length 104 weeks): 65.4 mg/kg/day
- TD50 (rat, strain Fischer 344, females, in drinking water, site: Zymbal's gland, lesion: carcinoma, dosed 98 weeks, study length 104 weeks): 18 mg/kg/day
- TD50 (rat, strain Fischer 344, females, in drinking water, site: adrenal medulla, lesion: pheochromocytoma, benign, dosed 98 weeks, study length 104 weeks): 38.3 mg/kg/day
- TD50 (rat, strain Fischer 344, females, in drinking water, site: adrenal medulla, lesion: pheochromocytoma, malignant + pheochromocytoma, benign, dosed 98 weeks, study length 104 weeks): 31.6 mg/kg/day
- TD50 (rat, strain Fischer 344, females, in drinking water, site: any site (literature study), lesion: several types, types named in the paper, dosed 98 weeks, study length 104 weeks): 2.31 mg/kg/day
- TD50 (rat, strain Fischer 344, females, in drinking water, site: clitoral gland + colon + duodenum + jejunum + liver + lung + pharynx + rectum + skin + tongue + Zymbal's gland, lesion: adenoma + adenoma, bilateral + carcinoma + carcinoma, bilateral + adenomatous polyp + mucinous cystadenocarcinoma + hepatocellular c, dosed 98 weeks, study length 104 weeks): 3.11 mg/kg/day
- TD50 (rat, strain Fischer 344, females, in drinking water, site: clitoral gland, lesion: adenoma + adenoma, bilateral + carcinoma + carcinoma, bilateral, dosed 98 weeks, study length 104 weeks): 4.75 mg/kg/day
- TD50 (rat, strain Fischer 344, females, in drinking water, site: clitoral gland, lesion: adenoma + adenoma, bilateral, dosed 98 weeks, study length 104 weeks): 11.9 mg/kg/day
- TD50 (rat, strain Fischer 344, females, in drinking water, site: clitoral gland, lesion: carcinoma + carcinoma, bilateral, dosed 98 weeks, study length 104 weeks): 8.97 mg/kg/day
- TD50 (rat, strain Fischer 344, females, in drinking water, site: colon + rectum, lesion: adenomatous polyp + mucinous cystadenocarcinoma, dosed 98 weeks, study length 104 weeks): 136 mg/kg/day
- TD50 (rat, strain Fischer 344, females, in drinking water, site: duodenum + jejunum, lesion: adenomatous polyp + mucinous cystadenocarcinoma, dosed 98 weeks, study length 104 weeks): 213 mg/kg/day
- TD50 (rat, strain Fischer 344, females, in drinking water, site: liver, lesion: hepatocellular adenoma + hepatocellular carcinoma + neoplastic nodule, dosed 98 weeks, study length 104 weeks): 14.2 mg/kg/day
- TD50 (rat, strain Fischer 344, females, in drinking water, site: liver, lesion: hepatocellular carcinoma + neoplastic nodule, dosed 98 weeks, study length 104 weeks): 14.2 mg/kg/day
- TD50 (rat, strain Fischer 344, females, in drinking water, site: liver, lesion: hepatocellular carcinoma, dosed 98 weeks, study length 104 weeks): 42.5 mg/kg/day
- TD50 (rat, strain Fischer 344, females, in drinking water, site: liver, lesion: neoplastic nodule, dosed 98 weeks, study length 104 weeks): 18 mg/kg/day
- TD50 (rat, strain Fischer 344, females, in drinking water, site: lung, lesion: alveolar/bronchiolar adenoma + alveolar/bronchiolar carcinoma, dosed 98 weeks, study length 104 weeks): 23.6 mg/kg/day
- TD50 (rat, strain Fischer 344, females, in drinking water, site: lung, lesion: alveolar/bronchiolar adenoma, dosed 98 weeks, study length 104 weeks): 26.3 mg/kg/day
- TD50 (rat, strain Fischer 344, females, in drinking water, site: mammary gland, lesion: adenocarcinoma, dosed 98 weeks, study length 104 weeks): 40.6 mg/kg/day
- TD50 (rat, strain Fischer 344, females, in drinking water, site: mammary gland, lesion: adenoma, dosed 98 weeks, study length 104 weeks): 67 mg/kg/day
- TD50 (rat, strain Fischer 344, females, in drinking water, site: mammary gland, lesion: fibroadenoma, dosed 98 weeks, study length 104 weeks): 11.4 mg/kg/day
- TD50 (rat, strain Fischer 344, females, in drinking water, site: multiple organs, lesion: leukemia + mononuclear-cell leukemia, dosed 98 weeks, study length 104 weeks): 9.44 mg/kg/day
- TD50 (rat, strain Fischer 344, females, in drinking water, site: pharynx + tongue, lesion: squamous-cell carcinoma + squamous-cell papilloma, dosed 98 weeks, study length 104 weeks): 31.4 mg/kg/day
- TD50 (rat, strain Fischer 344, females, in drinking water, site: pharynx + tongue, lesion: squamous-cell carcinoma, dosed 98 weeks, study length 104 weeks): 227 mg/kg/day
- TD50 (rat, strain Fischer 344, females, in drinking water, site: pharynx + tongue, lesion: squamous-cell papilloma, dosed 98 weeks, study length 104 weeks): 36.5 mg/kg/day
- TD50 (rat, strain Fischer 344, females, in drinking water, site: pharynx, lesion: squamous-cell papilloma, dosed 98 weeks, study length 104 weeks): 72.4 mg/kg/day
- TD50 (rat, strain Fischer 344, females, in drinking water, site: pituitary gland, lesion: pars distalis adenoma, dosed 98 weeks, study length 104 weeks): 11.1 mg/kg/day
- TD50 (rat, strain Fischer 344, females, in drinking water, site: skin, lesion: basal-cell adenoma + basal-cell carcinoma, dosed 98 weeks, study length 104 weeks): 21.9 mg/kg/day
- TD50 (rat, strain Fischer 344, females, in drinking water, site: skin, lesion: basal-cell adenoma, dosed 98 weeks, study length 104 weeks): 28.2 mg/kg/day
- TD50 (rat, strain Fischer 344, females, in drinking water, site: skin, lesion: squamous-cell carcinoma + squamous-cell papilloma, dosed 98 weeks, study length 104 weeks): 49.7 mg/kg/day
- TD50 (rat, strain Fischer 344, females, in drinking water, site: skin, lesion: squamous-cell carcinoma, dosed 98 weeks, study length 104 weeks): 57.3 mg/kg/day
- TD50 (rat, strain Fischer 344, females, in drinking water, site: subcutaneous tissue, lesion: fibrosarcoma + fibroma, dosed 98 weeks, study length 104 weeks): 78.2 mg/kg/day
- TD50 (rat, strain Fischer 344, females, in drinking water, site: thyroid gland, lesion: c-cell adenoma, dosed 98 weeks, study length 104 weeks): 48.7 mg/kg/day
- TD50 (rat, strain Fischer 344, females, in drinking water, site: thyroid gland, lesion: follicular-cell adenoma + follicular-cell carcinoma, dosed 98 weeks, study length 104 weeks): 28.8 mg/kg/day
- TD50 (rat, strain Fischer 344, females, in drinking water, site: thyroid gland, lesion: follicular-cell adenoma, dosed 98 weeks, study length 104 weeks): 53.5 mg/kg/day
- TD50 (rat, strain Fischer 344, females, in drinking water, site: thyroid gland, lesion: follicular-cell carcinoma, dosed 98 weeks, study length 104 weeks): 68.9 mg/kg/day
- TD50 (rat, strain Fischer 344, females, in drinking water, site: tongue, lesion: squamous-cell carcinoma + squamous-cell papilloma, dosed 98 weeks, study length 104 weeks): 65.7 mg/kg/day
- TD50 (rat, strain Fischer 344, females, in drinking water, site: tongue, lesion: squamous-cell papilloma, dosed 98 weeks, study length 104 weeks): 75 mg/kg/day
- TD50 (rat, strain Fischer 344, females, in drinking water, site: uterus, lesion: endometrial stromal polyp + endometrial stromal sarcoma, dosed 98 weeks, study length 104 weeks): 16.4 mg/kg/day
- TD50 (rat, strain Fischer 344, females, in drinking water, site: uterus, lesion: endometrial stromal polyp, dosed 98 weeks, study length 104 weeks): 20.1 mg/kg/day
- TD50 (rat, strain Fischer 344, males, in drinking water, site: Zymbal's gland, lesion: adenoma + carcinoma, dosed 104 weeks, study length 104 weeks): 27 mg/kg/day
- TD50 (rat, strain Fischer 344, males, in drinking water, site: Zymbal's gland, lesion: carcinoma, dosed 104 weeks, study length 104 weeks): 29.8 mg/kg/day
- TD50 (rat, strain Fischer 344, males, in drinking water, site: adrenal medulla, lesion: pheochromocytoma benign, bilateral + pheochromocytoma, malignant + pheochromocytoma, benign, dosed 104 weeks, study length 104 weeks): 5.94 mg/kg/day
- TD50 (rat, strain Fischer 344, males, in drinking water, site: adrenal medulla, lesion: pheochromocytoma, benign, dosed 104 weeks, study length 104 weeks): 6.69 mg/kg/day
- TD50 (rat, strain Fischer 344, males, in drinking water, site: any site (literature study), lesion: several types, types named in the paper, dosed 104 weeks, study length 104 weeks): 3.23 mg/kg/day
- TD50 (rat, strain Fischer 344, males, in drinking water, site: liver + skin + Zymbal's gland, lesion: hepatocellular carcinoma + neoplastic nodule + basal-cell adenoma + basal-cell carcinoma + keratoacanthoma + sebaceous gland carci, dosed 104 weeks, study length 104 weeks): 2.8 mg/kg/day
- TD50 (rat, strain Fischer 344, males, in drinking water, site: liver, lesion: hepatocellular adenoma + hepatocellular carcinoma + neoplastic nodule, dosed 104 weeks, study length 104 weeks): 7.02 mg/kg/day
- TD50 (rat, strain Fischer 344, males, in drinking water, site: liver, lesion: hepatocellular carcinoma + neoplastic nodule, dosed 104 weeks, study length 104 weeks): 7.02 mg/kg/day
- TD50 (rat, strain Fischer 344, males, in drinking water, site: liver, lesion: hepatocellular carcinoma, dosed 104 weeks, study length 104 weeks): 20.2 mg/kg/day
- TD50 (rat, strain Fischer 344, males, in drinking water, site: liver, lesion: neoplastic nodule, dosed 104 weeks, study length 104 weeks): 10.4 mg/kg/day
- TD50 (rat, strain Fischer 344, males, in drinking water, site: lung, lesion: alveolar/bronchiolar adenoma + alveolar/bronchiolar carcinoma, dosed 104 weeks, study length 104 weeks): 47.2 mg/kg/day
- TD50 (rat, strain Fischer 344, males, in drinking water, site: lung, lesion: alveolar/bronchiolar adenoma, dosed 104 weeks, study length 104 weeks): 39 mg/kg/day
- TD50 (rat, strain Fischer 344, males, in drinking water, site: multiple organs, lesion: mononuclear-cell leukemia, dosed 104 weeks, study length 104 weeks): 12.3 mg/kg/day
- TD50 (rat, strain Fischer 344, males, in drinking water, site: pharynx + tongue, lesion: squamous-cell papilloma, dosed 104 weeks, study length 104 weeks): 71 mg/kg/day
- TD50 (rat, strain Fischer 344, males, in drinking water, site: skin, lesion: basal-cell adenoma + basal-cell carcinoma, dosed 104 weeks, study length 104 weeks): 3.3 mg/kg/day
- TD50 (rat, strain Fischer 344, males, in drinking water, site: skin, lesion: basal-cell adenoma, dosed 104 weeks, study length 104 weeks): 3.58 mg/kg/day
- TD50 (rat, strain Fischer 344, males, in drinking water, site: skin, lesion: basal-cell carcinoma, dosed 104 weeks, study length 104 weeks): 22.8 mg/kg/day
- TD50 (rat, strain Fischer 344, males, in drinking water, site: skin, lesion: keratoacanthoma, dosed 104 weeks, study length 104 weeks): 20.4 mg/kg/day
- TD50 (rat, strain Fischer 344, males, in drinking water, site: skin, lesion: sebaceous gland carcinoma + sebaceous adenoma, dosed 104 weeks, study length 104 weeks): 23.4 mg/kg/day
- TD50 (rat, strain Fischer 344, males, in drinking water, site: skin, lesion: squamous-cell carcinoma + squamous-cell papilloma, dosed 104 weeks, study length 104 weeks): 12.7 mg/kg/day
- TD50 (rat, strain Fischer 344, males, in drinking water, site: skin, lesion: squamous-cell carcinoma, dosed 104 weeks, study length 104 weeks): 16.2 mg/kg/day
- TD50 (rat, strain Fischer 344, males, in drinking water, site: testis, lesion: interstitial-cell adenoma, bilateral + interstitial-cell adenoma, dosed 104 weeks, study length 104 weeks): 3.39 mg/kg/day

Structure (SMILES): C#CC1(O)CC[C@H]2[C@@H]3CCC4=CCCC[C@@H]4[C@H]3CC[C@@]21C (stereo not given in full)
- TD50 (dog, strain Beagle, females, in feed, site: mammary gland, lesion: carcinoma, dosed 364 weeks, study length 364 weeks): 0.58 mg/kg/day

Structure (SMILES): C=C1CC[C@H](O)C/C1=C/C=C1\CCC[C@]2(C)[C@@H]([C@H](C)CC[C@@H](O)C(C)(C)O)CC[C@@H]12
- TD50 (rat, strain Slc-Wistar, males, in feed, site: adrenal medulla, lesion: pheochromocytoma, dosed 57 weeks, study length 57 weeks): 0.803 mg/kg/day
- carcinogen call (rat, strain Slc-Wistar, males, in feed, site: stomach, glandular, lesion: adenocarcinoma, dosed 57 weeks, study length 57 weeks): negative (inactive)
